# Literature values as cited in paper PMC2984425, “Safety and pharmacokinetics of novel selective vascular endothelial growth factor receptor-2 inhibitor YN968D1 in patients with advanced malignancies” (BMC Cancer, 2010).
# System: VEGFR-2
# Conditions: no reference given; read-out: IC50, inhibitory effect on VEGFR-2; cited from earlier work
compound,measurement,value
N#CC1(c2ccc(NC(=O)c3cccnc3NCc3ccncc3)cc2)CCCC1 [apatinib],IC50,2.43 nM
